From US10329294B2, “Pyrazolopyrimidine inhibitors of IRAK4 activity” (MERCK SHARP & DOHME CORP., priority 2015, dated 2019)
Counter-ions that a name gives are not always drawn.

Biological target: IRAK4 (Homo sapiens (Human), UniProt Q9NWZ3)
Assay: IRAK4 Kinase Assay
Type: biochemical
Settings: IMAP fluorescence polarization, 0.5 nM GST tagged IRAK4, 100 μM ATP, 30 minutes at 25° C.; read-out: IRAK4 IC50

IRAK4, sequence (Q9NWZ3 whole entry): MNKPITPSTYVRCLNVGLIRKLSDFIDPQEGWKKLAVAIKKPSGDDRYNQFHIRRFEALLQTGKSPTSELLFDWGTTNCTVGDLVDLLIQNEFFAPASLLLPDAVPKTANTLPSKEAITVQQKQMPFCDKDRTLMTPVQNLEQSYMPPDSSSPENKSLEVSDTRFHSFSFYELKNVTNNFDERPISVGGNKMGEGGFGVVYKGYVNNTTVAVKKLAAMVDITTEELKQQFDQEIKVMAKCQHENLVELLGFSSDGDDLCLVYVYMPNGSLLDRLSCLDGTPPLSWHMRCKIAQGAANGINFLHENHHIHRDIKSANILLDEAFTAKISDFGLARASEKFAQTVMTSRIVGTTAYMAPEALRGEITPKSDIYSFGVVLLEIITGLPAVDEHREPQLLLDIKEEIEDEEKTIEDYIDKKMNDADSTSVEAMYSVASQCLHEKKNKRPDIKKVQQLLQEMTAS

Structure (SMILES)	IC50
N[C@H]1CCCC[C@H]1Nc1ccn2ncc(C(=O)Nc3cn(CC(F)F)nc3C(F)(F)F)c2n1 [Example 292, 5-{[(1R,2S)-2-aminocyclohexyl]amino}-N-[1-(2,2-difluoroethyl)-3-(trifluoromethyl)-1H-pyrazol-4-yl]pyrazolo[1,5-a]pyrimidine-3-carboxamide trifluoroacetate]	0.8 nM
N[C@@H]1[C@H](Nc2ccn3ncc(C(=O)Nc4cn(CC(F)F)nc4C(F)(F)F)c3n2)CCCC1(F)F [Example 66, 5-{[(1R,2R)-2-amino-3,3-difluorocyclohexyl]amino}-N-[1-(2,2-difluoroethyl)-3-(trifluoromethyl)-1H-pyrazol-4-yl]pyrazolo[1,5-a]pyrimidine-3-carboxamide trifluoroacetate]	244 nM
Cn1cc(NC(=O)c2cnn3ccc(N4CCN(CC5CC5)CC4)nc23)c(C(F)(F)F)n1 [Example 6, 5-[4-(cyclopropylmethyl)piperazin-1-yl]-N-[1-methyl-3-(trifluoromethyl)-1H-pyrazol-4-yl]pyrazolo[1,5-a]pyrimidine-3-carboxamide]	681 nM
Cn1cc(NC(=O)c2cnn3ccc(N4CCNCC5(CC5)C4)nc23)c(C(F)(F)F)n1 [Example 14, 5-(5,8-diazaspiro[2.6]non-5-yl)-N-[1-methyl-3-(trifluoromethyl)-1H-pyrazol-4-yl]pyrazolo[1,5-15a]pyrimidine-3-carboxamide trifluoroacetate]	16 nM
Cn1cc(NC(=O)c2cnn3ccc(N4C[C@H]5CC[C@@H]4CN5)nc23)c(C(F)F)n1 (single isomer, unassigned) [Example 161, 5-[(1S,4S)- or (1R,4R)-2,5-diazabicyclo[2.2.2]oct-2-yl]-N-[3-(difluoromethyl)-1-methyl-1H-pyrazol-4-yl]pyrazolo[1,5-a]pyrimidine-3-carboxamide trifluoroacetate]	2 nM
Cn1cc(NC(=O)c2cnn3ccc(N4CCNCC5(CC5)C4)nc23)c(C(F)F)n1 [Example 86, 5-(5,8-diazaspiro[2.6]non-5-yl)-N-[3-(difluoromethyl)-1-methyl-1H-pyrazol-4-yl]pyrazolo[1,5-a]pyrimidine-3-carboxamide trifluoroacetate]	2 nM
Cn1cc(NC(=O)c2cnn3ccc(N[C@H]4CNC[C@@H](F)C4)nc23)c(C(F)F)n1 [Example 258, N-[3-(difluoromethyl)-1-methyl-1H-pyrazol-4-yl]-5-{[(3R,5S)-5-fluoropiperidin-3-yl]amino}pyrazolo[1,5-a]pyrimidine-3-carboxamide hydrochloride]	0.5 nM
N#Cc1ccccc1NC(=O)c1cnn2ccc(N[C@@H]3CCCC(F)(F)[C@@H]3N)nc12 [Example 268, 5-{[(1R,2R)-2-amino-3,3-difluorocyclohexyl]amino}-N-(2-cyanophenyl)pyrazolo[1,5-a]pyrimidine-3-carboxamide]	268 nM
Cn1cc(NC(=O)c2cnn3ccc(NC4CNCCC4F)nc23)c(C(F)F)n1 (single isomer, unassigned) [Example 236, N-[3-(difluoromethyl)-1-methyl-1H-pyrazol-4-yl]-5-[(3R or S, 4R or S-4-fluoropiperidin-3-yl)amino]pyrazolo[1,5-a]pyrimidine-3-carboxamide]	0.6 nM
Cn1cc(NC(=O)c2cnn3ccc(N4C[C@@H]5CN[C@@H](C5)C4)nc23)c(C(F)(F)F)n1 (single isomer, unassigned) [Example 224, 5-[(1S,5S)- or (1R,5R)-3,6-diazabicyclo[3.2.1]oct-3-yl]-N-[1-methyl-3-(trifluoromethyl)-1H-pyrazol-4-yl]pyrazolo[1,5-a]pyrimidine-3-carboxamide]	70 nM
Cn1cc(NC(=O)c2cnn3ccc(N4C[C@@H]5CC[C@H]4CN5)nc23)c(Cl)n1 (single isomer, unassigned) [Example 151, N-(3-chloro-1-methyl-1H-pyrazol-4-yl)-5-[(1S,4S)- or (1R,4R)-(2,5-diazabicyclo[2.2.2]oct-2-yl]pyrazolo[1,5-a]pyrimidine-3-carboxamide trifluoroacetate]	128 nM
N[C@H]1CCCC[C@H]1Nc1ccn2ncc(C(=O)Nc3cscc3C(F)F)c2n1 [Example 119, 5-{[(1R,2S)-2-aminocyclohexyl]amino}-N-[4-(difluoromethyl)thiophen-3-yl]pyrazolo[1,5-a]pyrimidine-3-carboxamide trifluoroacetate]	0.5 nM
N[C@H]1CCCC[C@H]1Nc1ccn2ncc(C(=O)Nc3ccsc3)c2n1 [Example 181, 5-{[(1R,2S)-2-aminocyclohexyl]amino}-N-thiophen-3-ylpyrazolo[1,5-a]pyrimidine-3-carboxamide trifluoroacetate]	54 nM
N#Cc1ccccc1NC(=O)c1cnn2ccc(N[C@@H]3CCCC[C@@H]3O)nc12 [Example 266, N-(2-cyanophenyl)-5-{[(1R,2S)-2-hydroxycyclohexyl]amino}pyrazolo[1,5-a]pyrimidine-3-carboxamide trifluoroacetate]	562 nM
Cn1cc(NC(=O)c2cnn3ccc(N4CCNCCC45CC5)nc23)c(C(F)(F)F)n1 [Example 95, 5-(4,7-diazaspiro[2.6]non-4-yl)-N-[1-methyl-3-(trifluoromethyl)-1H-pyrazol-4-yl]pyrazolo[1,5-a]pyrimidine-3-carboxamide trifluoroacetate]	789 nM
Cn1ncc(NC(=O)c2cnn3ccc(N[C@@H]4CCCC[C@@H]4N)nc23)c1C(F)(F)F [Example 166, 5-{[(1R,2S)-2-aminocyclohexyl]amino}-N-[1-methyl-5-(trifluoromethyl)-1H-pyrazol-4-yl]pyrazolo[1,5-a]pyrimidine-3-carboxamide trifluoroacetate]	15 nM
Cn1cc(NC(=O)c2cnn3ccc(N4CCC(F)(F)[C@H](N)C4)nc23)c(C(F)(F)F)n1 (single isomer, unassigned) [Example 192, 5-[(4R)- or (4S)-(3-amino-4,4-difluoropiperidin-1-yl)-N-[1-methyl-3-(trifluoroemthyl)-1H-pyrazol-4-yl]pyrazolo[1,5-a]pyrimidine-3-carboxamide trifluoroacetate]	23 nM
Cn1cc(NC(=O)c2cnn3ccc(N4C[C@H]5CC[C@@H]4CN5)nc23)c(C#N)n1 (single isomer, unassigned) [Example 157, N-(3-cyano-1-methyl-1H-pyrazol-4-yl)-5-[(1S,4S)- or (1R,4R)-2,5-diazabicyclo[2.2.2]oct-2-yl]pyrazolo[1,5-a]pyrimidine-3-carboxamide trifluoroacetate]	60 nM

Continued by falling IC50, values first:

IC50	Structure (SMILES)
955 nM	O=C(Nc1ccccc1Br)c1cnn2ccc(N3CC4CCC3CN4)nc12 (stereo not shown) [Example 112, N-(2-bromophenyl)-5-(2,5-diazabicyclo[2.2.2]oct-2-yl)pyrazolo[1,5-a]pyrimidine-3-carboxamide trifluoroacetate]
524 nM	O=C(Nc1ccsc1Br)c1cnn2ccc(N3CC4CCC3CN4)nc12 (stereo not shown) [Example 142, N-(2-bromothiophen-3-yl)-5-(2,5-diazabicyclo[2.2.2]oct-2-yl)pyrazolo[1,5-a]pyrimidine-3-carboxamide trifluoroacetate]
66 nM	Cn1cc(NC(=O)c2cnn3ccc(N4CCCNCC4)nc23)c(C(F)(F)F)n1 [Example 8, 5-(1,4-diazepan-1-yl)-N-[1-methyl-3-(trifluoromethyl)-1H-pyrazol-4-yl]pyrazolo[1,5-a]pyrimidine-3-carboxamide trifluoroacetate]
60 nM	Cn1cc(NC(=O)c2cnn3ccc(N4CCC(F)(F)[C@@H](N)C4)nc23)c(C(F)(F)F)n1 (single isomer, unassigned) [Example 188, 5-[(4R)- or (4S)-(3-amino-4,4-difluoropiperidin-1-yl)-N-[1-methyl-3-(trifluoromethyl)-1H-pyrazol-4-yl]pyrazolo[1,5-a]pyrimidine-3-carboxamide trifluoroacetate]
49 nM	CC(C)(C)n1cc(NC(=O)c2cnn3ccc(N4CCNCC5(CC5)C4)nc23)c(C(F)(F)F)n1 [Example 47, N-[1-tert-butyl-3-(trifluoromethyl)-1H-pyrazol-4-yl]-5-(5,8-diazaspiro[2.6]non-5-yl)pyrazolo[1,5-a]pyrimidine-3-carboxamide trifluoroacetate]
19 nM	Cn1cc(NC(=O)c2cnn3ccc(N4C[C@H]5CC[C@@H]4CN5)nc23)c(C(F)(F)F)n1 (single isomer, unassigned) [Example 77, 5-[1S,4S)- or (1R,4R)-2,5-diazabicyclo[2.2.2]oct-2-yl]-N-[1-methyl-3-(trifluoromethyl)-1H-pyrazol-4-yl]pyrazolo[1,5-a]pyrimidine-3-carboxamide trifluoroacetate]
7 nM	Cn1cc(NC(=O)c2cnn3ccc(N[C@@H]4CCCC[C@@H]4N)nc23)c(-c2nncn2C)n1 [Example 286, 5-{[(1R,2S)-2-aminocyclohexyl]amino}-N-[1-methyl-3-(4-methyl-4H-1,2,4-triazol-3-yl)-1H-pyrazol-4-yl]pyrazolo[1,5-a]pyrimidine-3-carboxamide trifluoroacetate]
2 nM	N#Cc1cscc1NC(=O)c1cnn2ccc(N[C@@H]3CCCC[C@@H]3N)nc12 [Example 39, 5-{[(1R,2S)-2-aminocyclohexyl]amino}-N-(4-cyanothiophen-3-yl)pyrazolo[1,5-a]pyrimidine-3-carboxamide trifluoroacetate]
2 nM	Cn1cc(NC(=O)c2cnn3ccc(N4CCC(F)(F)[C@H](N)C4)nc23)c(C(F)F)n1 (single isomer, unassigned) [Example 193, 5-[(4R)- or (4S)-(3-amino-4,4-difluoropiperidin-1-yl)-N-[3-(difluoromethyl)-1-methyl-1H-pyrazol-4-yl]pyrazolo[1,5-a]pyrimidine-3-carboxamide trifluoroacetate]
1 nM	N[C@H]1CCCC[C@H]1Nc1ccn2ncc(C(=O)Nc3ccccc3Cl)c2n1 [Example 104, 5-{[(1R,2)S-2-aminocyclohexyl]amino}-N-(2-chlorophenyl)pyrazolo[1,5-a]pyrimidine-3-carboxamide trifluoroacetate]
